Reference: patent publication US20060052357A1, “Organometallic anti-tumour agent” (priority 2001, published 2006)

Legend:
[1] = system: leukemia L-1210; test: Leukemia L-1210 survival; type: in vivo, mice
Description: (§1) The therapeutic efficacy was investigated on the leukemia tumor strains L-1210, P-388, and P-388 strains specifically obtained for drug resistance. The lifespan of the animals was set at 60 days in this case. Drug-resistant tumor were obtained by successive transplantation of the leukemia P-388 with ascites cells taken from mice which had been treated with rubomycin (strain P388/ph), vincristine (P388/vcr) and zisplatin (P388/cPt).
Inoculum: 10^6 cells in 0.2 ml of physiological saline solution. Mice: BDF1, females 19-21 g. The products were administered intraabdominally.
(§2) After transplantation of the tumor, the substance MOC.melphalan was administered intraabdominally to the animals in a dosage of 5 mg/kg in 0.3 ml of 10% Twin-80 solution on days 1 to 7. The effect of the substance was assessed on the basis of the lifespan and the weight change of the animals (table 9). The observation period was 60 days.

[2] = system: B-16 melanoma tumor; test: B-16 melanoma tumor, MOC.melphalan and MOC.tegafur (Example 13); type: in vivo, mice; details: Dose 5 mg/kg (table), day 16
Description: MOC.tegafur was administered in a physiological solution. The animals in the control group likewise received administration of the solutions (without products). On day 16, the mice were sacrificed by decapitation, tumor tissue was removed for histological examination, and the tumor was investigated for antitumor activity (table 23). The tumors were fixed with 10% formalin, which was followed by embedding in paraffin. The section thickness of 5 μm were stained with hematoxylin-eosinome. The microscopy was carried out with a Leica Galen microscope.

[3] = system: S-180 sarcoma tumor cells; test: DNA concentration in S-180 sarcoma tumor cells after incubation; type: cell-based, mice; details: 0.05 mg/10^6 cells; for DNA concentration: 37° C., control 106; for DNA concentration/control: control 100
Description: S-180 sarcoma tumor cells (20·10^6 cells/investigation) were incubated with the substance MOC.melphalan in a concentration of 0.05 mg/10^6 cells at a temperature of 37° C. for 40 or 60 min (see table 16).
The DNA concentration was determined using the phenol-chloroform method of MANIATIS (Maniatis, Frin, Sämbruck Methods of genetic engineering, Molecular Cloning, M.: MIR, 1984, pages 479 et seq.). Separation of DNA and RNA was followed by a phoresis in a 2.5% agarose gel (see table 16, FIG. 7).

[4] = system: P388/cPt; test: Drug-resistant leukemia P388/cPt (cisplatin-resistant) survival; type: in vivo, mice; details: 5 mg/kg, days 1-7
Source text: as §1
Resistance to the products mentioned appear in the 8th, 6th and 4th generation.
(§3) The products were administered intraabdominally. Cu(acac)2M was dissolved in 10% Twin 80.

[5] = system: adenocarcinoma; test: Adenocarcinoma, intravenous administration four times; type: in vivo, mice; details: 5 mg/kg intravenous four times
Source text: 2. Antitumor Activity for Adenocarcinoma and Intra-Venous Administration (Four Times in Physiological Saline Solution)

[6] = system: AKATON tumor; test: AKATON small bowel adenocarcinoma, treatment with MOC.melphalan (Example 8); type: in vivo, mice; details: day 21
Description: (§4) After transplantation of the AKATON tumor into white crossbred mice, the animals received the substance MOC.melphalan by intraabdominal administration in a dosage of 5 mg/kg in 0.3 ml of physiological solution on days 3, 5, 7 and 9. The animals were sacrificed on day 21 of the investigation and underwent histological, morphological examination (table 14).
as §4, with “intravenous” for “intraabdominal”, “15).” for “14).”

[7] = system: leukemia P-388; test: Leukemia P-388 survival (original strain); type: in vivo, mice
[8] = system: leukemia P-388; test: Leukemia P-388 survival (original strain); type: in vivo, mice; remark: listed apart in the source
Description: as §1
Inoculum: 10^6 cells in 0.2 ml of physiological saline solution. Mice: BDF1. Females 19-21 g
as §2, with “7).” for “9). The observation period was 60 days.”
as §3

[9] = Toxicity investigations; type: in vivo, five laboratory species; details: 5 mg/kg of body weight
Description: The toxicity of the complex (C5H7O2)2—Cu—C13H18Cl2N2O2 of the invention was determined on five laboratory species in various tests. […] It was additionally possible to show in the investigations that (C5H7O2)2—Cu—C13H18Cl2N2O2 induces no resistance even on prolonged administration.

[10] = system: S-180 sarcoma tumor; test: S-180 sarcoma in white crossbred mice (Example 7); type: in vivo; details: day 21
Description: as §4, with “S-180 sarcoma” for “AKATON”, “1” for “5”, “10% DMSO” for “physiological”, “5” for “5, 7”, “11).” for “14).”
as §4, with “S-180 sarcoma” for “AKATON”, “received” for “received the substance”, “MOC.melphalan and melphalan” for “MOC.melphalan”, “10% DMSO” for “physiological”, “12).” for “14).”
After transplantation of the S-180 sarcoma tumor into white crossbred mice, the animals received MOC.melphalan and melphalan by intraabdominal administration in a dosage of 5 mg/kg in 0.3 ml of 10% DMSO solution on days 2, 4, 6, 8 and 10. The animals were sacrificed on day 21 of the investigation and underwent histological, morphological examination (table 13).

[11] = 5 mg/kg intraabdominal days 1-7
[12] = 5 mg/kg intraabdominal days 3, 5, 7, 9

**Q.** With `CC(=O)C=C(C)[O-].CC(=O)C=C(C)[O-].NC(Cc1ccc(N(CCCl)CCCl)cc1)C(=O)O.[Cu+2]` (centres unmarked) [MOC.melphalan, (C5H7O2)2—Cu—C13H18Cl2N2O2] as the molecule, how does the Change in weight [1, 11] read?
**A.** The Change in weight was -1.5 g.

**Q.** And the “% of surviving animals” value ([1]; 5 mg/kg intraabdominal days 1-7, 60 days observation)?
**A.** The value was 100%.

**Q.** What about the “Lifespan of the animals in the experiment” value ([1]; 5 mg/kg intraabdominal days 1-7, control 8.5) of the same molecule?
**A.** The value was over 60 days.

**Q.** What about the “MI (mitosis index)” value ([2]; control 4.22) of the same molecule?
**A.** The value was 0.64.

**Q.** What about the Percent inhibition ([2]; intraabdominal days 3, 5, 9) of the same molecule?
**A.** Its Percent inhibition is 77.71%.

**Q.** What about the Tumor weight ([2]; intraabdominal days 3, 5, 9, control 3.22) of the same molecule?
**A.** The Tumor weight was 0.74 g.

**Q.** What about the DNA concentration ([3]; incubation 40 min) of the same molecule?
**A.** Its DNA concentration is 530 μg/g of cells.

**Q.** What about the DNA concentration ([3]; incubation 60 min) of the same molecule?
**A.** The DNA concentration was 53 μg/g of cells.

**Q.** What about the DNA concentration/control ([3]; incubation 40 min) of the same molecule?
**A.** The DNA concentration/control was 498.

**Q.** What about the DNA concentration/control ([3]; incubation 60 min) of the same molecule?
**A.** Its DNA concentration/control is 50.

**Q.** And the ILS % [4]?
**A.** Its ILS % is 193%.

**Q.** And the “% inhibition” value [5]?
**A.** Its value is 80%.

**Q.** And the “Mass of the tumor” value ([5]; control 4.4)?
**A.** Its value is 0.9 g.

**Q.** And the Percentage inhibition [6, 12]?
**A.** The Percentage inhibition was 92%.

**Q.** What about the Average tumor mass ([6]; 5 mg/kg intraabdominal days 3, 5, 7, 9, control 3.6) of the same molecule?
**A.** The Average tumor mass was 0.3.

**Q.** And the Percentage inhibition ([6]; 5 mg/kg intravenous days 3, 5, 7, 9)?
**A.** The Percentage inhibition was 80%.

**Q.** And the Average tumor mass ([6]; 5 mg/kg intravenous days 3, 5, 7, 9, control 4.4)?
**A.** Its Average tumor mass is 0.9 g.

**Q.** And the ILS % ([7]; 10 mg/kg, days 1, 5, 9)?
**A.** The ILS % was 419%.

**Q.** And the “Number of surviving animals/number of animals in group” value ([7]; 10 mg/kg, days 1, 5, 9)?
**A.** The value was 5/6.

**Q.** What about the ILS % ([7]; 10 mg/kg, days 1, 7) of the same molecule?
**A.** Its ILS % is 465%.

**Q.** And the “Number of surviving animals/number of animals in group” value ([7]; 10 mg/kg, days 1, 7)?
**A.** The value was 4/6.

**Q.** And the ILS % ([7]; 15 mg/kg, days 1, 7)?
**A.** Its ILS % is 447%.

**Q.** And the “Number of surviving animals/number of animals in group” value ([7]; 15 mg/kg, days 1, 7)?
**A.** The value was 5/6.

**Q.** What about the Change in weight [8, 11] of the same molecule?
**A.** The Change in weight was -2.5 g.

**Q.** And the “Increase in average lifespan” value [8, 11]?
**A.** The value was 56.0%.

**Q.** What about the “Number of animals which survived to day 60” value ([8]; 5 mg/kg intraabdominal days 1-7, 6 animals) of the same molecule?
**A.** The value was 0.

**Q.** What about the Average lifespan ([8]; 5 mg/kg intraabdominal days 1-7, control 10.8) of the same molecule?
**A.** Its Average lifespan is 16.8 days.

**Q.** And the ILS % ([8]; 5 mg/kg, days 1-7)?
**A.** Its ILS % is 56%.

**Q.** What about the “changes in organs and tissues” value [9] of the same molecule?
**A.** The value was “no specific changes”.

**Q.** And the “changes in the peripheral blood count” value [9]?
**A.** The value was “no serious changes”.

**Q.** And the “effects on renal and hepatic function” value [9]?
**A.** Its value is “no pathological effects”.

**Q.** What about the Percentage inhibition ([10]; 1 mg/kg intraabdominal days 3, 5, 9) of the same molecule?
**A.** Its Percentage inhibition is 100%.

**Q.** What about the Percentage inhibition ([10]; 5 mg/kg intraabdominal days 2, 4, 6, 8, 10) of the same molecule?
**A.** The Percentage inhibition was 49%.

**Q.** And the Average tumor mass ([10]; 5 mg/kg intraabdominal days 2, 4, 6, 8, 10, control 3.9 ± 0.5)?
**A.** Its Average tumor mass is 2.0 ± 0.7 g.

**Q.** And the Percentage inhibition [10, 12]?
**A.** Its Percentage inhibition is 100%.
